Test: Human HepG2 cell viability assay in 384 well format
Assay type: toxicity, cell-based
Design: dose 125 nL, time 70.5 hour; concentration not given beside the values
Details: HepG2 cells, read-out: Inhibition

Row | Structure (SMILES) | cytotoxicity at 70.5 h
1 | O=C(NCC[S+]([O-])Cc1ccccc1)c1ccc2[nH]c(=O)[nH]c2c1 (configuration not stated) | -3.54%
2 | CCc1nccn1-c1cncc(C2CCCN2Cc2ccc(F)cc2)n1 (configuration not stated) | 36.1%
3 | Cc1csc(CN(C)C(=O)C2CCC(=O)N(CCN(C)C)C2)n1 (configuration not stated) | -3.99%
4 | CCN(CC)C(=O)CN1CCCC(c2nc(C)c3c(n2)N(C)CCC3)C1 (configuration not stated) | 0.707%
5 | c1coc(-c2noc(CN3CCCC3Cn3cncn3)n2)c1 (configuration not stated) | -8.45%
6 | NC(=O)C(NC(=O)COCCc1ccccc1)c1ccccc1F (configuration not stated) | 5.16%
7 | Cc1nccn1CC1CCN(C(=O)c2ccccc2)CC1 | -7.01%
8 | Cc1ccccc1C(CC(=O)NCc1nnc(N)s1)c1ccccc1 (configuration not stated) | -3.82%
9 | CS(=O)(=O)Nc1cccc(CNC(=O)c2cccs2)c1 | 19%
10 | CSCC(=O)Nc1nccn1Cc1ccc(Br)cc1 | -3.91%
11 | O=C(Cc1cccs1)N1C[C@H]2CN(CC3CCCO3)CC[C@H]2C1 (some centres not stated) | -6.25%
12 | Cc1nc2ccnn2c(C)c1CCC(=O)N1CCN2CCCCC2C1 (configuration not stated) | -9.21%
13 | CCN1CCN(c2cncc(Cl)n2)CC1 | 26.6%
14 | O=S(=O)(c1c(F)cccc1F)N1CCCC1c1nnc2n1CCCCC2 (configuration not stated) | -12.1%
15 | COCCS(=O)(=O)NC(C)c1cccc(C)c1C (configuration not stated) | 28.4%
16 | O=C(NCc1csc(Br)c1)N1CCC(O)CC1 | -4.25%
17 | COC(=O)CNC(=O)CC1COc2ccc(C(=O)N(C)C)cc2N1C (configuration not stated) | -2.55%
18 | N#Cc1ccc(F)c(CN2CCNC(=O)C2c2cccs2)c1 (configuration not stated) | 18%
19 | CN1CCC(NC(=O)Nc2ccc(Cl)c(F)c2)C1=O (configuration not stated) | 2.58%

Row | Structure (SMILES) | cytotoxicity at 70.5 h
20 | O=C(c1ncn2c1CNS(=O)(=O)c1ccccc1-2)N1CCCCC1 | -2.38%
21 | O=C(Nc1ccc(-n2cncn2)c(F)c1)C1CCN(C(=O)C2CC2)CC1 | 1.9%
22 | COCC(=O)N1CC[C@@H]2CN(Cc3ccccc3)S(=O)(=O)[C@@H]2CC1 | -5.37%
23 | CN(C)c1ccc(CN(CCCn2ccnc2)Cc2c[nH]cn2)cc1 | -13.5%
24 | Cc1ccc(S(=O)(=O)N2CCN(Cc3ccncc3)CC2)c(Cl)c1 | -26.7%
25 | CCNc1cc2c(nn1)CCN(C(=O)C1COc3ccccc3C1)C2 (configuration not stated) | -12.3%
26 | COc1ccccc1C(=O)N1CCCC1c1nncn1CC(C)C (configuration not stated) | -0.719%
27 | O=S(=O)(NCCCn1cncn1)c1ccc2c(c1)CCO2 | -5.26%
28 | CCN1CCC(c2cncc(N(C)C)n2)CC1 | 1.63%
29 | c1ccc2c3c([nH]c2c1)CN(Cc1cc2n(n1)CCNC2)CC3 | 21.1%
30 | Cc1cc(N2CCCC2c2nc(C)cc(CCC(=O)O)n2)ncn1 (configuration not stated) | -9.37%
31 | CN(Cc1ccccn1)C(C(=O)O)c1ccc2c(c1)OCO2 (configuration not stated) | -2.22%
32 | N[C@H]1CN(C(=O)c2ccc(Cl)cc2O)C[C@@H]1C1CC1 | -3.15%
33 | O=C1O[C@@H]2CN(c3ccncc3)C[C@@H]2N1CCCc1ccc(F)cc1 | -6.08%
34 | O=C(CC(F)(F)F)N1CCc2[nH]nc(-c3ccc4c(c3)OCO4)c2C1 | 7.4%
35 | Cn1ccnc1COc1ccc(NC(=O)C2CCCO2)cc1 (configuration not stated) | 3.57%
36 | CC(C)Oc1ncccc1CNC(=O)N1CCSCC1 | -2.87%
37 | O=C(N1CCc2ccccc2CC1)C1(O)Cc2ccccc2C1 | -2.64%
38 | CC(O)CN1CCC(CN(C)C(=O)NC2CC2)CC1 (configuration not stated) | -1.96%

Row | Structure (SMILES) | cytotoxicity at 70.5 h
39 | CCCc1noc(C2CCCCN2C(=O)C2CCCC2)n1 (configuration not stated) | 32.2%
40 | COCCN(C(=O)c1ccc(OC)cc1)c1ccc(C#N)cc1 | 10.5%
41 | CSCC[C@@H](CO)Nc1nc(-c2ccccn2)nc2c1c(C)nn2C | -0.626%
42 | Cc1cc(C)cc(CNCCS(=O)(=O)N2CCOCC2)c1 | 33.6%
43 | Cc1nnc2n1CCN(C(=O)c1cnc3c(cnn3C(C)C)c1)C2 | 25.5%
44 | CC(C)CCCNC(=O)Nc1ccc(F)c(C(N)=O)c1 | 2.14%
45 | COc1cccc(CNc2c(C)nn(C(C)C)c2C)c1 | -2.2%
46 | CSCc1cc(F)ccc1CNC(=O)N1CCCC(CO)C1 (configuration not stated) | -7.73%
47 | CCC(=O)N1CCN(C(=O)NC2CCc3ccccc3C2)CC1 (configuration not stated) | -4.1%
48 | Cc1nc([C@@H]2C[C@H]3CN(Cc4scnc4C)C[C@H]3O2)no1 | 5.82%
49 | Cn1ccnc1CN1CCC2(CC(=O)N(c3cccc(F)c3)C2)C1 (configuration not stated) | -4.42%
50 | c1ccc2c(c1)nnn2CCCNC1CCOC2(CCOCC2)C1 (configuration not stated) | -5%
51 | Cc1nc(CN2CCC3(CCN(c4ncc(F)cn4)C3)C2=O)cs1 (configuration not stated) | 4.85%
52 | COCC(=O)N1CC2(CCN(c3ccccc3)C2)C1 | -5.97%
53 | CN1CCN(C2CCN(c3ccnc(-c4ccccc4)n3)CC2)C1=O | 6.14%
54 | O=C(Nc1cccnc1)[C@H]1COC[C@H]2CN(C3CCCC3)C[C@H]21 | 3.49%
55 | O=C(c1sccc1-n1cnnn1)N1CCC(Cc2ccccc2)CC1 | -4.62%
56 | CC(C)c1ccc(NC(=O)Cn2cc(I)cn2)cc1 | -24.1%
57 | CC(C)c1ocnc1C(=O)N1CCC(=O)Nc2cccnc21 | -13.9%

From ChEMBL document CHEMBL3507680, “University of Dundee, Gates Library screen for HepG2 cell viability”
